The source of these data is US4644006A, “Substituted 3,4-diamino-1,2,5-thiadiazoles having histamine H2 -receptor antagonist activity” (Bristol-Myers Company, priority 1984, dated 1987).

One assay relates to histamine H2-receptors. As to conditions: Black et al., Nature, 236, 385 (1972); cited from earlier work.
Assay [1] addresses T1, histamine H2-receptors (isolated guinea pig right atria) (Cavia porcellus, UniProt P47747).
T1 construct: The spontaneously beating right atrium was dissected free from other tissues; from tissue; host or cells: isolated spontaneously beating right atrium of male Hartley guinea pigs
Nature of the assay: Histamine H2-receptor antagonism, isolated guinea pig right atria assay. More on the design: estimated dissociation constant KB: unit not given here. The conditions noted are these: for effect on histamine or dimaprit dose-response curves: at the concentrations utilized, 30-minute incubation. The protocol: Subsequent investigations by Hughes and Coret, Proc. Soc. […] Black et al., Agents and Actions, 3, 133 (1973) and Brimblecombe et al., Fed. […] The present comparative studies were carried out using a modification of the procedure reported by Reinhardt et al., Agents and Actions, 4, 217 (1974).
The spontaneously beating right atrium was dissected free from other tissues and a silk thread (4-0) attached to each end.

The test system of assay [2] is gastric acid secretion (Heidenhain pouch dog). Nature of the assay: Gastric antisecretory activity in the histamine-stimulated Heidenhain pouch dog. Format: in vivo. As to conditions: for ED50: Canis lupus familiaris, 0.5 h, read-out: ED50 i.v. The protocol:
Prior to surgery, hematology and blood chemistry profiles are obtained and an assessment made as to the general health of selected female dogs. Dogs are vaccinated with Tissue Vax 5 (DHLP-Pitman-Moore) and housed in general animal quarters for four weeks' observation so incipient diseases may become apparent. Dogs are fasted with water ad libitum 24 hours prior to surgery.
Anesthesia is induced with Sodium Pentothal (Abbott) 25-30 mg/kg iv. Subsequent anesthesia is maintained with methoxyflurane (Pitman-Moore). A mid-line linea alba incision from xiphoid to umbilicus provides good exposure and ease of closure. The stomach is pulled up into the operative field, the greater curvature stretched out at multiple points and clamps placed along the selected line of incision. The pouch is made from the corpus of the stomach so that true parietal cell juice is obtained. About 30% of the corpus volume is resected. The cannula is made of light-weight,biologically-inert material such as nylon, Delrin or surgical stainless steel with dimensions and attachments after DeVito and Harkins [J. Appl. Physiol., 14, 138 (1959)]. Post-operatively, dogs are medicated with antibiotics and an analgesic. They are allowed 2-3 months for recovery. Experiments are carried out in the following way: Dogs are fasted overnight (18 hours) with water ad libitum prior to each experiment. The dogs are placed in a sling and a saphenous vein cannulated for drug administration. Histamine as the base (100 μg/kg/hr) and chlorpheniramine maleate (0.25 mg/kg/hr) are infused continuously (in a volume of 6 ml/hr) with a Harvard infusion pump.
Ninety minutes' infusion are allowed for the dogs to reach a steady state of acid output. At this time the drug or normal saline (control) is administered concomitantly with the secretagogue in a volume of 0.5 ml/kg over a 30 second period. Infusion of the secretagogue is continued and 15 minute samples of the gastic juice are taken for 4.5 hours. Each sample is measured to the nearest 0.5 ml and tritratable acidity is determined by titrating a 1 ml sample to pH 7.0 with a 0.2N NaOH, employing a fully automatic titration system (Metrohm). Titratable acid output is calculated in microequivalents by multiplying the volume is milliliters by the acid concentration in microequivalents per milliliter.
Results at peak activity after bolus intravenous administration of test compound are expressed as percent inhibition relative to control readings. Dose-response curves were constructed utilizing at least three dose levels with a minimum of three dogs at each dose level. […]

A further assay deals with peptic ulcer disease. As to conditions: Gray et al., Lancet, 1, 8001 (1977); cited from earlier work.

SMILES strings stand for the structures. Read-outs that look alike come from different tables or passages of the source.

T1 sequence (P47747 whole entry): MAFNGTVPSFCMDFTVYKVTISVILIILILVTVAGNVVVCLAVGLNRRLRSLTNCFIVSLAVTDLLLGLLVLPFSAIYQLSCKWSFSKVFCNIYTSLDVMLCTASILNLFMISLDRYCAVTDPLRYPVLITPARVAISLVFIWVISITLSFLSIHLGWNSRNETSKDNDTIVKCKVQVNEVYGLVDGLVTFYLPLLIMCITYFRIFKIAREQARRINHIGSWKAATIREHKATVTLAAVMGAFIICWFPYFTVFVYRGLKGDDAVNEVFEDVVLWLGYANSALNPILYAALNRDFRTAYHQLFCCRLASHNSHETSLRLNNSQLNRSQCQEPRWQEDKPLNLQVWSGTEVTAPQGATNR

As to `CNC(=S)NCCCCc1cnc[nH]1` [burimamide], the “type of antagonism at histamine H2-receptors” value in the assay on histamine H2-receptors is “competitive antogonist”.

On to `CN/C(=N/CCSCc1nc[nH]c1C)NC#N` [cimetidine, reference compound], for which the “effect on histamine or dimaprit dose-response curves” value in assay [1] is “Parallel shifts in dose-response curves were obtained without depressing the maximal response”. For the same compound, the median effective dose (ED50) in assay [2] (iv) stood at 2.6 µmol/kg. Moreover, the “clinical effectiveness in peptic ulcer disease” value with peptic ulcer disease is given as “effective therapeutic agent in the treatment of peptic ulcer disease”.

In the case of `N=C(N)Nc1nc(CSCCNc2nsnc2N)cs1` [Example 1, 3-Amino-4-{2-[(2-guanidinothiazol-4-yl)methylthio]ethylamino}-1,2,5-thiadiazole], the “effect on histamine or dimaprit dose-response curves” value in assay [1] is reported as “Parallel shifts in dose-response curves were obtained without depressing the maximal response”. In addition, the “estimated dissociation constant KB” value in assay [1] (estimated by method of Furchgott, KB = concentration of antagonist/dose ratio-1, ± S.E., N = 5 preparations) was 0.0094 ± 0.0018. Further, the “Potency Ratio (cimetidine = 1.0)” value in assay [1] (from KB, isolated guinea pig right atria, cimetidine = 1.0) was 44; in assay [2] (i.v., Heidenhain pouch dog, cimetidine = 1.0, Probit analysis), 32. In addition, the ED50 in assay [2] (intravenous dose giving 50% inhibition at time of peak activity, i.e. 30 minutes post dose, parentheses: 95% confidence limits, histamine 100 μg/kg/hr) was 0.082 µmol/kg. For the same compound, the “duration of action of antisecretory activity” value in assay [2] (intravenous dog model, relative to cimetidine) is reported as “prolonged duration of action relative to cimetidine”.

The ED50 is the midpoint of the dose-response relation.
